{"source": "patent US20240101685A1", "about": "“NEAR INFRARED PHOTOIMMUNOTHERAPY (NIR-PIT) COMBINATION THERAPY TO TREAT CANCER” (THE UNITED STATES OF AMERICA, as represented by the …, priority 2021, published 2024)", "key": {"[1]": {"details": "IR700 at 689 nm; Photofrin 630 nm; Foscan 652 nm; NPe6/Laserphyrin 654 nm; cited from earlier work"}, "MC38-luc tumor": {"system": "MC38-luc tumor", "assay": "In vivo efficacy of L-NaAA alone", "set-up": "species or system mice", "excerpt": "(C) Luciferase activity calculated from BLI (n=10, mean±SEM; repeated measures two-way ANOVA followed by Tukey's test; N.S., not significant)."}, "LL/2-luc tumors": {"system": "LL/2-luc tumors", "assay": "CD44-targeted NIR-PIT with or without L-NaAA", "type": "in vivo, C57BL/6 mice", "from_the_text": "(§1) The images were taken pre- and post-NIR-PIT. ROIs were placed on the tumor. […] ROIs were placed over the entire tumor."}, "A431 GFP-luc tumor": {"system": "A431 GFP-luc tumor", "assay": "Panitumumab NIR-PIT with or without L-NaAA", "type": "in vivo, athymic mice", "details": "with L-NaAA", "from_the_text": "as §1"}, "MC38-luc tumors [2]": {"system": "MC38-luc tumors", "procedure": "ROIs were placed over the entire tumor. […] (A) Treatment schedule.\nas §1\nScout images were obtained to accurately locate the tumor.\nSingle-cell suspensions from tumor samples were pre-pared using following protocol. Whole tumors were incubated in the RPMI 1640 medium (Thermo Fisher Scientific) containing collagenase type IV (1 mg mL^−1; Thermo Fisher Scientific) and DNase I (20 μg mL^−1; Millipore Sigma, Burlington, MA) in 37° C. for 30 minutes, then gently cut with scissors and mashed with the back of the plunger of 3 mL syringe. The tissues were passed through a 70 μm cell strainer (Corning, Corning, NY). A total of 3.0×10^6 cells was stained and data for 5.0×10^5 cells were collected for each tumor. The cells were stained with anti-CTLA4 antibody (Clone; UC10-4B9) from Thermo Fisher Scientific. To distinguish live cells from dead cells, cells were also stained with LIVE/DEAD Fixable Dead Cell Stain (Thermo Fisher Scientific). The fluorescence of the cells was then analyzed with the flow cytometer (FACSLyric, BD Biosciences) and FlowJo software (FlowJo LLC). Dead cells were removed from analysis based on FSC, SSC, and staining with LIVE/DEAD Fixable Dead Cell Stain."}, "MC38-luc tumors [3]": {"system": "MC38-luc tumors", "assay": "CD44-targeted NIR-PIT with or without L-NaAA", "description": "Photon counts were evaluated with the Photon Imager (Biospace Lab) using relative light units. ROIs were placed over the entire tumor. The counts per minute of relative light units were calculated using M3 Vision Software (Biospace Lab) and converted to the percentage based on those before NIR-PIT using the following formula: [(relative light units after treatment)/(relative light units before treatment)×100(%)]. Chemiluminescent images were continually recorded 1 and 3 hours after NIR-PIT.\n(§2) The APC was injected 6 days after inoculation of cancer cells into C57BL/6 mice. […] NIR light (690 nm, 150 mW cm-2, 50 J cm-2) was exposed on the next day. […] Upon NIR light exposure, the normal tissue adjacent to the tumor was covered with aluminum foil to ensure that the NIR light exposure is limited in tumor site. Dorsal fluorescence images of IR700 were obtained with the 700 nm fluorescence channel of the Pearl Imager (LI-COR Biosciences). The images were taken pre- and post-NIR-PIT. ROIs were placed on the tumor. The dorsal edema formation of treated mouse 1 day after NIR light irradiation was imaged by a camera. Acute treatment efficacy was evaluated with BLI analysis, in which, D-luciferin (3 mg mouse-1; Gold Biotechnology) was intraperitoneally injected into mice. Luciferase activity was analyzed with a BLI system (Biospace Lab) using relative light units. ROIs were placed over the entire tumor. The counts per minute of relative light units were calculated using M3 Vision Software (Biospace Lab) and converted to the percentage based on those before NIR-PIT using the following formula: [(relative light units after treatment)/(relative light units before treatment)×100(%)]. Bioluminescence im-ages were continually recorded until the onset of depilation-induced skin pigmentation precluded accurate measurement.\nUnder pentobarbital anesthesia, MRI was performed on a 3-T scanner using an in-house 10-inch circle shaped mouse receiver coil array (Elition 3T; Philips Medical Systems, Best, Nether-lands) 1 day after NIR light exposure. Scout images were obtained to accurately locate the tumor. All mice underwent T2-weighted fat-saturation imaging (T2WI fat-sat) and short-TI inversion recovery imaging (STIR). All images were obtained in the coronal plane and T2WI fat-sat images were also obtained in the axial plane. All images were analyzed using Image J software, and 3D imaging were recon-structed. The high signal intensity area derived from each image in T2WI fat-sat and STIR was calculated by Image J."}, "MOC2-luc tumors": {"system": "MOC2-luc tumors", "assay": "CD44-targeted NIR-PIT with or without L-NaAA", "description": "as §2"}, "MDAMB468 GFP-luc cells": {"system": "MDAMB468 GFP-luc cells", "assay": "In vitro NIR-PIT with reducing agents, PI staining", "details": "10 mM NaN3", "description": "(§3) A431 GFP-luc or MDAMB468 GFP-luc cells (4×10^5) were seeded into 12-well plates, and incubated for 24 hours, and then exposed to media containing panitumumab-IR700 (10 μg mL^−1) for 1 hour at 37° C. […] NIR light (690 nm, 150 mW cm^−2, 1 or 2 J cm^−2 for A431 GFP-luc, 20 J cm^−2 for MDAMB468 GFP-luc) was irradiated to cancer cells. For flow cytometric analyses, the cells were collected with trypsin one hour after NIR light exposure. Cells were then stained with propidium iodide (PI, 1 μg mL^−1) at RT for 5 minutes. The fluorescence of the cells was then analyzed with a flow cytometer (FACSCalibur, BD Biosciences, San Jose, CA, USA) and FlowJo software (BD Biosciences)."}, "A431 GFP-luc cells": {"system": "A431 GFP-luc cells", "assay": "In vitro NIR-PIT with reducing agents, PI staining", "details": "for cytotoxicity of Pan-PIT in the presence of NaN3: 10 mM NaN3", "description": "as §3"}, "[4]": {"details": "IR700 with L-cysteine, NaN3 added"}, "[5]": {"procedure": "Before and after each irradiation, the 700 nm fluorescence intensity was acquired by a fluorescence imager (Pearl Imager, LI-COR Bioscience, Lincoln, NE, USA). Pearl Cam Software (LI-COR Biosciences) was used for analyzing fluorescence. The same regions of interest (ROIs) were put on the solution in each tube, and then mean 700 nm fluorescence intensity was measured. The appearance of the tube before and after NIR light irradiation was imaged. All the experiments were carried out at RT."}, "LL2-luc tumor": {"system": "LL2-luc tumor", "details": "IL15 1 ug i.p. preconditioning + anti-PD-L1-IR700 + NIR light 50 J/cm2", "description": "Tumors were established in mice by administration of 5×10^5 LL2 cells s.c. Four days later, IL15 (1 ug i.p.) was administered, followed one day later with anti-PD-L1-IR700 (or vehicle control), followed with or without NIR light (50 J/cm2) another day later."}, "[6]": {"details": "dose of 3 mg/kg for melanoma therapy; cited from earlier work"}, "mEERL-hEGFR cells": {"system": "mEERL-hEGFR cells", "assay": "In vitro NIR-PIT, PI staining and MTT assay", "type": "cell-based, murine", "procedure": "After washing with PBS, phenol-red-free RPMI 1640 medium was added. NIR light (690 nm) was irradiated to cancer cells with an ML7710 laser system (Modulight, Tampere, Finland) at a power density of 150 mW/cm^2. One hour after NIR-PIT, the cells were collected with trypsin, and stained with propidium iodide (PI, 1 μg/mL) at room temperature for 5 minutes, and then assessed for PI positivity on a BD FACSCalibur (BD Biosciences) using CellQuest software (BD Biosciences) using FlowJo software (FlowJo LLC). To assess cell viability, cell proliferation was evaluated by 3-(4,5-Dimethyl-2-thiazolyl)-2,5-diphenyl-2H-tetrazolium bromide (MTT) assay. Cells were incubated and treated, as described above. One hour after NIR-PIT, the medium was removed and 500 μl of MTT reagent (SIGMA Aldrich; 0.5 mg/ml) was added to each well. After 1 hour incubation, the supernatant was removed and 500 μL of 2-propanol was added to each well to dissolve the crystal formazan dye. After transferring 100 μL of the supernatant to 96 well plate each, absorbance was measured at 570 nm on a microplate reader (Synergy™ H1). For relative quantification, the value of absorbance in each group was normalized to that in the control group."}, "mEERL-hEGFR tumors [7]": {"system": "mEERL-hEGFR tumors", "assay": "Histologic analysis (H-E staining) 1 hour after NIR-PIT", "type": "in vivo, C57BL/6 mice", "details": "tumors harvested 1 hour after light exposure", "from_the_text": "Tumors from mEERL-hEGFR, MC38-luc, and LLC tumors were harvested, formalin-fixed and paraffin-embedded, and sectioned at […]. Following standard hematoxylin and eosin (HE) staining, bright-light photomicrographs were obtained using Mantra Quantitative Pathology Workstation (PerkinElmer)."}, "mEERL-hEGFR tumors [8]": {"system": "mEERL-hEGFR tumors", "set-up": "tumor volume: dose or concentration left out as unconfirmed", "description": "The lower part of the body of the mice was shaved before NIR light irradiation and image analysis. Tumors were established via subcutaneous injection of 1×10^6 cells in the right or both side of dorsal flank for each model. Mice with tumors reaching approximately 50-100 mm^3 in volume were used for the experiments. Mice were monitored each day, and tumor volume (tumor volume=length×width^2×0.5) was measured twice a week until the tumor volume reached 2,000 mm^3, whereupon the mice were euthanized with inhalation of carbon dioxide gas. In a bilateral model, the mice were euthanized when either tumor reached its humane endpoint. Tumor disappearance for 4 weeks or longer after treatment was defined as complete remission.\nThe mixed antibody/APC was injected 6 days after inoculation of cancer cells into C57BL/6 mice. Twenty-four hours after administration, NIR light (690 nm, 150 mW/cm^2) was irradiated to tumors at 50 J/cm^2 in all groups. The surface of the mouse other than the tumor was covered with aluminum foil. […] In the bilateral model, NIR light (690 nm, 150 mW/cm^2) was given only to right-sided tumors at 50 J/cm^2 and the remainder of the mouse (including the left-sided tumor) was covered with aluminum foil during irradiation."}, "[9]": {"details": "CD44-targeted NIR-PIT with L-NaAA"}, "[10]": {"details": "with or without L-NaAA injection"}, "[11]": {"details": "1 day after CD44-targeted NIR-PIT"}}, "data": [{"compound": "Oc1cccc(-c2c3nc(c(-c4cccc(O)c4)c4ccc([nH]4)c(-c4cccc(O)c4)c4nc(c(-c5cccc(O)c5)c5ccc2[nH]5)CC4)C=C3)c1", "note": "[Foscan®, meta-tetrahydroxyphenylchlorin]", "values": [{"measurement": "extinction coefficient", "setting": "[1]", "value": 22000, "unit": "M⁻¹ cm⁻¹"}]}, {"compound": "O=C1O[C@H]([C@@H](O)CO)C([O-])=C1O.[Na+]", "note": "[L-NaAA, L-sodium ascorbate]", "values": [{"measurement": "tumor growth (BLI)", "setting": "MC38-luc tumor", "value": "not to affect tumor growth"}, {"measurement": "body weight", "setting": "LL/2-luc tumors; [9]", "value": "no significant difference in body weight was detected"}, {"measurement": "antitumor effects of CD44-targeted NIR-PIT (BLI)", "setting": "LL/2-luc tumors; with L-NaAA", "value": "not changed"}, {"measurement": "edema formation 1 day after NIR-PIT", "setting": "LL/2-luc tumors; [10]", "value": "no edema was detected"}, {"measurement": "efficacy of pan-PIT (BLI)", "setting": "A431 GFP-luc tumor", "value": "did not affect the efficacy of pan-PIT"}, {"measurement": "edema formation", "setting": "MC38-luc tumors [2]; 1 day after CTLA4-targeted NIR-PIT", "value": "suppressed both macroscopically and by MRI"}, {"measurement": "BLI intensity by day 6 post NIR-PIT", "setting": "MC38-luc tumors [2]; CTLA4-IR700 50 μg, NIR 50 J cm-2, L-NaAA 80 mg mouse-1 i.p.", "value": "no difference was observed between the two groups"}, {"measurement": "ROS", "setting": "MC38-luc tumors [2]; CTLA4-targeted NIR-PIT with vs without L-NaAA", "value": "higher ROS was also detected in the NIR-PIT without L-NaAA group"}, {"measurement": "body weight the day after NIR-PIT", "setting": "MC38-luc tumors [2]; NIR-PIT with L-NaAA group", "value": "significant lower weight"}, {"measurement": "CTLA4hi cells among total live cells", "setting": "MC38-luc tumors [2]; three hours after CTLA4-targeted NIR-PIT", "value": "selectively depleted in both NIR-PIT with and without L-NaAA groups"}, {"measurement": "edema on T2WI fat-sat MRI", "setting": "MC38-luc tumors [3]; [11]", "value": "minimal edema was observed just around the treated tumors"}, {"measurement": "high signal intensity area on T2WI fat-sat images", "setting": "MC38-luc tumors [3]; [11]", "value": "significantly larger in the group treated without L-NaAA"}, {"measurement": "ROS (chemiluminescence imaging with L-012)", "setting": "MC38-luc tumors [3]; CD44-targeted NIR-PIT with vs without L-NaAA", "value": "significantly lower intensity (lower ROS) on CLI"}, {"measurement": "body weight", "setting": "MC38-luc tumors [3]; NIR-PIT with vs without L-NaAA", "value": "No significant difference in body weight"}, {"measurement": "edema formation 1 day after NIR-PIT", "setting": "MC38-luc tumors [3]; [10]", "value": "no edema was detected"}, {"measurement": "body weight", "setting": "MOC2-luc tumors; [9]", "value": "no significant difference in body weight was detected"}, {"measurement": "antitumor effects of CD44-targeted NIR-PIT (BLI)", "setting": "MOC2-luc tumors; with L-NaAA", "value": "not changed"}, {"measurement": "edema formation 1 day after NIR-PIT", "setting": "MOC2-luc tumors; [10]", "value": "no edema was detected"}, {"measurement": "cytotoxicity of Pan-PIT in the presence of NaN3", "setting": "MDAMB468 GFP-luc cells", "value": "restored cytotoxicity of Pan-PIT suppressed by NaN3"}]}, {"compound": "N[C@@H](CS)C(=O)O", "note": "[L-cysteine]", "values": [{"measurement": "cytotoxicity of Pan-PIT in the presence of NaN3", "setting": "A431 GFP-luc cells", "value": "could not reverse the effects of NaN3"}, {"measurement": "cytotoxic damage of Pan-PIT, low concentration of reducing agent", "setting": "A431 GFP-luc cells; L-NaAA low or pharmacological concentrations, L-cysteine 0.001 mM", "value": "slightly enhanced the cytotoxic damage"}, {"measurement": "cytotoxic damage of Pan-PIT, high concentration of reducing agent", "setting": "A431 GFP-luc cells; L-NaAA over 1 mM, L-cysteine 0.1 mM or higher", "value": "compromised the cytotoxicity"}]}, {"compound": "C=Cc1c(C)c2cc3nc(c(CC(=O)N[C@@H](CC(=O)[O-])C(=O)[O-])c4[nH]c(cc5nc(cc1[nH]2)C(C)=C5CC)c(C)c4C(=O)[O-])[C@@H](CCC(=O)[O-])[C@@H]3C.[Na+].[Na+].[Na+].[Na+]", "note": "[NPe6/Laserphyrin®, mono-L-aspartylchlorin e6]", "values": [{"measurement": "extinction coefficient", "setting": "[1]", "value": 40000, "unit": "M⁻¹ cm⁻¹"}]}, {"compound": "[N-]=[N+]=[N-]", "note": "[NaN3, Sodium azide, reference compound]", "values": [{"measurement": "ligand cleavage (remaining IR700)", "setting": "[4]", "value": "ligand cleavage decreased"}, {"measurement": "cytotoxicity of Pan-PIT in the presence of NaN3", "setting": "A431 GFP-luc cells", "value": "suppression of NIR-PIT cytotoxicity"}]}, {"compound": "C[Si](C)(CCC[N+](CCCS(=O)(=O)O)(CCCS(=O)(=O)O)CCCS(=O)(=O)O)O[Si]1(O[Si](C)(C)CCC[N+](CCCS(=O)(=O)O)(CCCS(=O)(=O)O)CCCS(=O)(=O)O)n2c3c4ccccc4c2N=C2N=C(N=c4c5ccccc5c(n41)=NC1=NC(=N3)c3ccccc31)c1ccccc12", "note": "[Pc 3, Bis{3-[Tris(3-Sulfopropyl)]Ammoniopropyldimethylsilvloxide} Silicon Phthalocyanine]", "values": [{"measurement": "solubility of Pc 3 after light exposure", "setting": "[5]", "value": "dramatically changed its solubility"}]}, {"compound": "IL-15: immunoactivator interleukin", "values": [{"measurement": "survival", "setting": "LL2-luc tumor", "value": "increased survival"}, {"measurement": "tumor volume", "setting": "LL2-luc tumor", "value": "substantially reduced tumor volume"}]}, {"compound": "Ipilimumab: anti-CTLA4 antibody", "values": [{"measurement": "patients with gastrointestinal symptoms (irAE)", "setting": "[6]", "value": "about 40%"}]}, {"compound": "Photofrin®", "values": [{"measurement": "extinction coefficient", "setting": "[1]", "value": 1200, "unit": "M⁻¹ cm⁻¹"}]}, {"compound": "pan-IR700", "values": [{"measurement": "cancer cell death (incorporation of propidium iodine and MTT assay)", "setting": "mEERL-hEGFR cells; APC 10 μg/mL 1 h, NIR light 690 nm, read 1 h after NIR-PIT", "value": "cancer cell death was induced by NIR-PIT in an NIR light-dose dependent manner"}, {"measurement": "cell viability, APC alone", "setting": "mEERL-hEGFR cells; without NIR light", "value": "Neither NIR light alone nor panitumumab IR700 alone induced significant alterations in cell viability"}]}, {"compound": "panitumumab NIR-PIT", "values": [{"measurement": "histologic change of tumor cells (H-E staining)", "setting": "mEERL-hEGFR tumors [7]", "value": "swelling and vacuolation of the tumor cell"}, {"measurement": "tumor volume", "setting": "mEERL-hEGFR tumors [8]; mixed antibody/APC i.v., NIR light 50 J/cm^2 once 1 day later", "value": "not significantly decreased"}, {"measurement": "mice in which the tumor was cleared", "setting": "mEERL-hEGFR tumors [8]; n=12-13", "value": "1/12"}]}]}
